Earlier results, collected in patent US11642308B2, “Ready to use liquid formulation” (priority 2020, dated 2023).

Settings: ≈25° C. and ≈1 bar

solubility in water: about 40 mg/L
SMILES: O=O [oxygen]
